One data set deals with T1, human α2A-adrenoceptor (Homo sapiens, UniProt P08913).
T1 construct: expressed in transfected cells; host or cells: COS-7 cells
T1 sequence (P08913 1-465): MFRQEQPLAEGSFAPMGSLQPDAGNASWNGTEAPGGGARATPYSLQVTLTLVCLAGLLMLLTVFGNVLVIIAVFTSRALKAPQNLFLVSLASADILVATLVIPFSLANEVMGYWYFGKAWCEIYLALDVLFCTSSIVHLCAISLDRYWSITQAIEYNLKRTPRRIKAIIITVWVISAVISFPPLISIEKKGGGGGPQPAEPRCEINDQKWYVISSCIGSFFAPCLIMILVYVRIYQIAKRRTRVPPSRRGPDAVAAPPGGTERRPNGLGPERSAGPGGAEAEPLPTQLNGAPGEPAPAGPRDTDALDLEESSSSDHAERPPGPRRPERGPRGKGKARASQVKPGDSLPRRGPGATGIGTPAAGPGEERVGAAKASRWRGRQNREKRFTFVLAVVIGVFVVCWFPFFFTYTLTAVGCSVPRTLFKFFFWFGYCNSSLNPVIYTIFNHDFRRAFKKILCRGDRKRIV
Kind of data set: α2A-Adrenoceptor binding experiment ([3H] MK912 displacement, crude membrane sample). To be noted: membranes of human α2A-adrenoceptor expressing COS-7 cells; [3H] MK912 1 nM; 25° C., 60 minutes; read-out: Ability to Inhibit (IC50, nM) α 2A. The procedure:
The subject experiment was performed by a method improved from the method described in Uhlen et al., Journal of Pharmacology and Experimental Therapeutics (1994), 1558-1565. Briefly, human α2A-adrenoceptor expressing COS-7 cells were homogenized with 50 mM Tris-HCl buffer (pH 7.4) containing 12.5 mM magnesium hydrochloride and 1 mM EDTA. The resultant homogenate was centrifuged at 48,000×g for 20 minutes at 4° C. twice. The precipitate was suspended in 50 mM Tris-HCl buffer (pH 7.4) containing 12.5 mM magnesium hydrochloride and 1 mM EDTA to give a protein concentration of 200 μg/ml. This suspension was used in binding experiments as a crude membrane sample. The crude membrane sample (0.1 ml, 20 μg protein, reaction volume 0.2 ml) was reacted with [^3H] MK912 (final concentration 1 nM) at 25° C. for 60 minutes. After completion of the reaction, the reaction mixture was vacuum filtered on GF/C glass fiber plate pre-immersed in 0.3% polyethyleneimine for 2 hours, using a Filtermate Harvester. Microscinti-0 (40 μl) was added to the plate, and the radioactivity was measured with Top Count (PerkinElmer). The amount of binding in the presence of 10 μM rauwolcine was taken as non-specific binding. The value obtained by subtracting non-specific binding from the total binding in the absence of 10 μM rauwolcine was taken as specific binding. Each of the test compounds was dissolved in 100% DMSO solution and added to the membrane sample simultaneously with [^3H] MK912. IC50 values were calculated from inhibition curves at concentrations from 1 nM to 10 μM.

The target of another data set is T2, human α2C-adrenoceptor (Homo sapiens, UniProt P18825).
T2 construct: expressed in transfected cells; host or cells: COS-1 cells
T2 sequence (P18825 1-462): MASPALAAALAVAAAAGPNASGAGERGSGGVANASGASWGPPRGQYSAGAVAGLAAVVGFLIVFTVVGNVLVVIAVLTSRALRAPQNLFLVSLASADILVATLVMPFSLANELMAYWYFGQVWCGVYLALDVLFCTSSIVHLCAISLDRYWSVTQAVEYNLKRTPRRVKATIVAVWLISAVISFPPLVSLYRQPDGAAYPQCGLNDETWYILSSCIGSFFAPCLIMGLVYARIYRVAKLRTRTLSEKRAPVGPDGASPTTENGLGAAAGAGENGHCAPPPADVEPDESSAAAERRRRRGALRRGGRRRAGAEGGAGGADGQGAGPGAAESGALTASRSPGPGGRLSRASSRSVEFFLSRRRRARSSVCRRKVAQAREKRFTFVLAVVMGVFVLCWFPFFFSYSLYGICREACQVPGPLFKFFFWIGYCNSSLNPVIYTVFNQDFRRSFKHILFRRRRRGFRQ
Kind of data set: α2C-Adrenoceptor binding experiment ([3H] MK912 displacement, crude membrane sample). The procedure: The subject experiment was performed by a method improved from the method described in Uhlen et al., Journal of Pharmacology and Experimental Therapeutics (1994), 1558-1565. Briefly, human α2C-adrenoceptor expressing COS-1 cells were homogenized with 50 mM Tris-HCl buffer (pH 7.4) containing 12.5 mM magnesium hydrochloride and 1 mM EDTA. The resultant homogenate was centrifuged at 48,000×g for 20 minutes at 4° C. twice. The precipitate was suspended in 50 mM Tris-HCl buffer (pH 7.4) containing 12.5 mM magnesium hydrochloride and 1 mM EDTA to give a protein concentration of 150 μg/ml. This suspension was used in binding experiments as a crude membrane sample. The crude membrane sample (0.5 ml, 75 μg protein) was reacted with [^3H] MK912 (final concentration 0.08 nM) at 25° C. for 60 minutes. After completion of the reaction, the reaction mixture was vacuum filtered on GF/B glass fiber filter pre-immersed in 0.3% polyethyleneimine for 2 hours, using a cell harvester for binding experiments. The filter was placed in a glass vial containing 8 ml of Aquasol 2, and the radioactivity thereof was measured with a liquid scintillation counter. The amount of binding in the presence of 10 μM rauwolcine was taken as non-specific binding. The value obtained by subtracting non-specific binding from the total binding in the absence of 10 μM rauwolcine was taken as specific binding. Each of the test compounds was dissolved in 100% dimethyl sulfoxide solution and added to the membrane sample simultaneously with [^3H] MK912. IC50 values were calculated from inhibition curves at concentrations from 0.1 nM to 1 μM.

[1] abbreviates: membranes of human α2C-adrenoceptor expressing COS-1 cells, [3H] MK912 0.08 nM, 25° C., 60 minutes, read-out: Ability to Inhibit (IC50, nM) α 2C.

The source of these data is patent publication US7601734B2, “Cyclic amine compound” (Taisho Pharmaceutical Co., Ltd., priority 2004, dated 2009).

Like-named read-outs stand apart in the source and are kept apart here.

On to `COC(=O)C(CCCN1CCc2oc3ccccc3c2C1)(c1ccc(F)cc1)c1ccc(F)cc1` [Compound 1, Methyl 5-(3,4-dihydro[1]benzofuro[3,2-c]pyridine-2(1H)-yl)-2,2-bis(4-fluorophenyl)pentanoate], for which the figures for the IC50 on human α2A-adrenoceptor and at human α2C-adrenoceptor (setting [1]) were 416 nM and 28 nM, respectively.
Taken in the same sequence, the figures for `O=C(O)C(CCCN1CCc2oc3ccccc3c2C1)(c1ccc(F)cc1)c1ccc(F)cc1` [Compound 2, 5-(3,4-dihydro[1]benzofuro[3,2-c]pyridine-2(1H)-yl)-2,2-bis(4-fluorophenyl)pentanoic acid] were 935 nM and 142 nM.
`Cl.NC(=O)C(CCCN1CCc2oc3ccccc3c2C1)(c1ccc(F)cc1)c1ccc(F)cc1` [Compound 3, 5-(3,4-dihydro[1]benzofuro[3,2-c]pyridine-2(1H)-yl)-2,2-bis(4-fluorophenyl)pentanoic acid amide]: the melting point (usually the temperature of the solid-liquid transition) was 174 to 179.5 °C. For the same molecule, the IC50 (in general, the point on the concentration scale where inhibition reaches its midpoint) at human α2A-adrenoceptor turned out to be 204 nM. For the same molecule, the IC50 on human α2C-adrenoceptor (setting [1]) was determined as 5.8 nM.
Taken in the same sequence, the figures for `Cl.N#CC(CCCN1CCc2oc3ccccc3c2C1)(c1ccc(F)cc1)c1ccc(F)cc1` [Compound 4, 5-(3,4-dihydro[1]benzofuro[3,2-c]pyridine-2(1H)-yl)-2,2-bis(4-fluorophenyl)pentanenitrile] were 113.5 to 120.5 °C, 136 nM and 9.3 nM.
`Cl.N#CC(CCCN1CCc2oc3ccccc3c2C1)(c1ccccc1)c1ccccc1` [Compound 5, 5-(3,4-dihydro[1]benzofuro[3,2-c]pyridine-2(1H)-yl)-2,2-diphenylpentanenitrile] gave a melting point of 195 to 199 °C. In addition, the IC50 on human α2A-adrenoceptor is 139 nM. For the same molecule, the IC50 on human α2C-adrenoceptor (setting [1]) came out at 5.7 nM.
For the molecule `N#CC(CCCN1CCc2sc3ccccc3c2C1)(c1ccccc1)c1ccccc1` [Compound 7, 5-(3,4-dihydro-[1]-benzothieno[3,2-C]pyridine-2(1H)-yl)-2,2-diphenyl-pentanenitrile], the IC50 at human α2A-adrenoceptor worked out at 1480 nM; at human α2C-adrenoceptor (setting [1]) it was 299 nM.
Turning to `N#CC(CCCN1CCc2[nH]c3ccccc3c2C1)(c1ccccc1)c1ccccc1` [Compound 8, 2,2-diphenyl-5-(1,3,4,5-tetrahydro-2H-pyrido[4,3-b]indole-2-yl)-pentanenitrile], the IC50 at human α2A-adrenoceptor came out at 1290 nM; at human α2C-adrenoceptor (setting [1]), 121 nM.
For `Cn1c2c(c3ccccc31)CN(CCCC(C#N)(c1ccccc1)c1ccccc1)CC2` [Compound 9, 5-(5-methyl-1,3,4,5-tetrahydro-2H-pyrido[4,3-b]indole-2-yl)-2,2-diphenyl-pentanenitrile], the figures for the IC50 on human α2A-adrenoceptor and at human α2C-adrenoceptor (setting [1]) were 4830 nM and 280 nM, respectively.
Turning to `N#CC(CCCN1CCc2oc3ccc(F)cc3c2C1)(c1ccccc1)c1ccccc1` [Compound 10, 5-(8-fluoro-3,4-dihydro-[1]-benzofuro[3,2-C]pyridine-2(1H)-yl)-2,2-diphenyl-pentanenitrile], the IC50 on human α2A-adrenoceptor came to 504 nM; at human α2C-adrenoceptor, 28 nM.
Consider `N#CC(CCCN1CCc2oc3ccc(Cl)cc3c2C1)(c1ccccc1)c1ccccc1` [Compound 11, 5-(8-chloro-3,4-dihydro-[1]-benzofuro[3,2-C]pyridine-2(1H)-yl)-2,2-diphenyl-pentanenitrile], for which the IC50 worked out at 1720 nM at human α2A-adrenoceptor and 203 nM on human α2C-adrenoceptor (setting [1]).
Take `COc1ccc2oc3c(c2c1)CN(CCCC(C#N)(c1ccccc1)c1ccccc1)CC3` [Compound 13, 5-(8-methoxy-3,4-dihydro-[1]-benzofuro[3,2-C]pyridine-2(1H)-yl)-2,2-diphenyl-pentanenitrile]: the half-maximal inhibitory concentration (IC50) at human α2A-adrenoceptor worked out at 563 nM; on human α2C-adrenoceptor (setting [1]) it was 53 nM.
In the same order, the values of `c1ccc(C(CCCN2CCc3oc4ccccc4c3C2)c2ccccc2)cc1` [Compound 15, 2-(4,4-diphenylbutyl)-1,2,3,4-tetrahydro-[1]-benzofuro[3,2-C]pyridine] are 243 nM and 10 nM.
Taken in the same sequence, the figures for `N#CC1(CCCN2CCc3oc4ccccc4c3C2)c2ccccc2Oc2ccccc21` [Compound 16, 9-[3-(3,4-dihydro-[1]-benzofuro[3,2-C]pyridine-2(1H)-yl)-propyl]-9H-xanthene-carbonitrile] were 102 nM and 12 nM.
